Measured values from ChEMBL document CHEMBL5055662, “Characterization of an aromatic trifluoromethyl ketone as a new warhead for covalently reversible kinase inhibitor design” (Bioorg Med Chem, 2021).

molecular target: Fibroblast growth factor receptor 2 (Homo sapiens, UniProt P21802); experiment: Inhibition of FGFR2 (unknown origin) using Tyr04 peptide as substrate incubated for 1 hr in presence of ATP by FRET based Z'-LYTE assay; details: not given
Sequence (P21802 whole entry): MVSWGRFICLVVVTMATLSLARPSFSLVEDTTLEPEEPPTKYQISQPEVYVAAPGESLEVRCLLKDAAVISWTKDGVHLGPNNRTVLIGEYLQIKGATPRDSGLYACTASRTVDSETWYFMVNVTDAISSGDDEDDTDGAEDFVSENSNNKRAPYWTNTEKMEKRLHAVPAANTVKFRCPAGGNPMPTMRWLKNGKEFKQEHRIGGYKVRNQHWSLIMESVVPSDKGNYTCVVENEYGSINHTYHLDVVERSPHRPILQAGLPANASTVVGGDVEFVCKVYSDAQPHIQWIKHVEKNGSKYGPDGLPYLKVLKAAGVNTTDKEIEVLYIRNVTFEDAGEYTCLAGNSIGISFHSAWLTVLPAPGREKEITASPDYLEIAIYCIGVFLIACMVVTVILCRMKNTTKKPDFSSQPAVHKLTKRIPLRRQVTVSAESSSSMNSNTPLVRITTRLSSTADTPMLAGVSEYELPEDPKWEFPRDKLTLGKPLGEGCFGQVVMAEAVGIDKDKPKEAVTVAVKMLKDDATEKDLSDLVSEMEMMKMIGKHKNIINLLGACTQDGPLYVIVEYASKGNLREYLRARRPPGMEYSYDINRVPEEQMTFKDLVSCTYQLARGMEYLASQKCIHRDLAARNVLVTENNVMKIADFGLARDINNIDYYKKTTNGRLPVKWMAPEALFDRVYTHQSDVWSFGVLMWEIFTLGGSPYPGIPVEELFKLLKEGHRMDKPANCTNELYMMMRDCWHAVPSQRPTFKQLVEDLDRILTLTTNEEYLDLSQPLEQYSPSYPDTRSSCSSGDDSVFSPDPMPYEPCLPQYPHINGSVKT

| SMILES | IC50 |
| --- | --- |
| COCCNc1cc(NC(=O)N2CCCc3ccc(C(=O)C(F)(F)F)nc32)ncc1C#N | > 10 µM |
| CC(C)Oc1cc(NC(=O)N2CCCc3ccc(C=O)nc32)ncc1C#N | > 10 µM |
| CCOc1cc(NC(=O)N2CCCc3ccc(C(=O)C(F)(F)F)nc32)ncc1C#N | > 10 µM |
| COCCOc1cc(NC(=O)N2CCCc3ccc(C(=O)C(F)(F)F)nc32)ncc1C#N | > 10 µM |
| N#Cc1cnc(NC(=O)N2CCCc3ccc(C(=O)C(F)(F)F)nc32)cc1OC1CCCC1 | > 10 µM |
| N#Cc1cnc(NC(=O)N2CCCc3ccc(C(=O)C(F)(F)F)nc32)cc1OC1CCOC1 (stereo not given) | > 10 µM |
| N#Cc1cnc(NC(=O)N2CCCc3ccc(C(=O)C(F)(F)F)nc32)cc1OC1CCCCC1 | > 10 µM |
| CCCOc1cc(NC(=O)N2CCCc3ccc(C(=O)C(F)(F)F)nc32)ncc1C#N | > 10 µM |
| COc1cc(NC(=O)N2CCCc3ccc(C(=O)C(F)(F)F)nc32)ncc1C#N | > 10 µM |
| CC(C)Oc1cc(NC(=O)N2CCCc3ccc(C(=O)C(F)(F)F)nc32)ncc1C#N | > 10 µM |
| CCCCOc1cc(NC(=O)N2CCCc3ccc(C(=O)C(F)(F)F)nc32)ncc1C#N | > 10 µM |

molecular target: Fibroblast growth factor receptor 4 (Homo sapiens) (UniProt P22455); experiment: Reversible covalent binding affinity to recombinant His-tagged human FGFR4 expressed in baculovirus expression system assessed as recovery of kinase activity preincubated for 120 mins followed by dialysis of protein for 3 days by MALDI-TOF MS analysis relative to control; details: time 4440.0 min
Sequence (P22455 22-802 limits assumed): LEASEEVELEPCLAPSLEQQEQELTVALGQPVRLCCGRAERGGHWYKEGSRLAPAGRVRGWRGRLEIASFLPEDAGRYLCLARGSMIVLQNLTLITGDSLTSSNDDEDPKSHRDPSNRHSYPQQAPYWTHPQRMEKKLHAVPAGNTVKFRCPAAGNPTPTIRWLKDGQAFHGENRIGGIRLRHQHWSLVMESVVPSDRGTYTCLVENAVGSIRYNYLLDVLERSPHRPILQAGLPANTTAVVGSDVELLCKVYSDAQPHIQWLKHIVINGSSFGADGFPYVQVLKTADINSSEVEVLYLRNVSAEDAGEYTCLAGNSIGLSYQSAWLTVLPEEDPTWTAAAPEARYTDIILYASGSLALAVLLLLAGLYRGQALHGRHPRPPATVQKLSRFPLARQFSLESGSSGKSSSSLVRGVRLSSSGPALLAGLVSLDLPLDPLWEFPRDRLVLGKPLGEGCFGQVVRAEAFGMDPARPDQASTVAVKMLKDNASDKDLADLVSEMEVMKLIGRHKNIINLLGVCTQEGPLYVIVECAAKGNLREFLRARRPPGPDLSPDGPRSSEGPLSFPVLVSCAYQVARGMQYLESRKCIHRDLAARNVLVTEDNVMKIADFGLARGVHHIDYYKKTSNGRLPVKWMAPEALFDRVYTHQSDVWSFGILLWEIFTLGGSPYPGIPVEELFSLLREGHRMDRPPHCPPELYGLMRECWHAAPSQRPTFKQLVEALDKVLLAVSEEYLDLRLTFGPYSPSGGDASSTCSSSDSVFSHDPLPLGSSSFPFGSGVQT

| SMILES | Activity |
| --- | --- |
| Cc1ccc(C(=O)Nc2ccc(CN3CCN(C)CC3)c(C(F)(F)F)c2)cc1C#Cc1cnc2cccnn12 | 100% |

molecular target: Fibroblast growth factor receptor 3 (Homo sapiens, UniProt P22607); experiment: Inhibition of FGFR3 (unknown origin) using Tyr04 peptide as substrate incubated for 1 hr in presence of ATP by FRET based Z'-LYTE assay; details: not given
Sequence (P22607 whole entry): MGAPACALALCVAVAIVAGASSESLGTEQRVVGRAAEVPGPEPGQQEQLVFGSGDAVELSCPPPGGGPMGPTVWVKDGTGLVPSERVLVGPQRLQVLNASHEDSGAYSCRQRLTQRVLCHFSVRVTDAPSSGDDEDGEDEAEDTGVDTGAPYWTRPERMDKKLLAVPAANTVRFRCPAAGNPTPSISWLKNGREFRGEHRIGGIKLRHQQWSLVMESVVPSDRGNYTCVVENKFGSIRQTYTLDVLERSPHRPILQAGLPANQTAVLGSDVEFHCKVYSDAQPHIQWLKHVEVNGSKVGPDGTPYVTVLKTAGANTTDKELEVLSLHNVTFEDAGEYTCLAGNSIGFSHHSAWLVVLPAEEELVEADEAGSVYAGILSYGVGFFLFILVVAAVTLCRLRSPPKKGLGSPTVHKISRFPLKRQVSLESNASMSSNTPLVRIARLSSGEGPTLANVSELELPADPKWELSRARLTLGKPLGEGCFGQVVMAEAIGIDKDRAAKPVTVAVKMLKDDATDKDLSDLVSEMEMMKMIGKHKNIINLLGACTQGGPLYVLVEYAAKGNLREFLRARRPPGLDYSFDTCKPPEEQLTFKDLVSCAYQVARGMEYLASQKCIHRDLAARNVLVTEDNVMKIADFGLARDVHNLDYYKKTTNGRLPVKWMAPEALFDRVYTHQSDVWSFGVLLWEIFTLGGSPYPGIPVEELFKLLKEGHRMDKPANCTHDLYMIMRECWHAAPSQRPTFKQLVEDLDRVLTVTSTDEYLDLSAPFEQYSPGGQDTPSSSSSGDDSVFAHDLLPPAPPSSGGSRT

| SMILES | IC50 |
| --- | --- |
| COCCNc1cc(NC(=O)N2CCCc3ccc(C(=O)C(F)(F)F)nc32)ncc1C#N | > 10 µM |
| CC(C)Oc1cc(NC(=O)N2CCCc3ccc(C=O)nc32)ncc1C#N | > 10 µM |
| CCOc1cc(NC(=O)N2CCCc3ccc(C(=O)C(F)(F)F)nc32)ncc1C#N | > 10 µM |
| COCCOc1cc(NC(=O)N2CCCc3ccc(C(=O)C(F)(F)F)nc32)ncc1C#N | > 10 µM |
| N#Cc1cnc(NC(=O)N2CCCc3ccc(C(=O)C(F)(F)F)nc32)cc1OC1CCCC1 | > 10 µM |
| N#Cc1cnc(NC(=O)N2CCCc3ccc(C(=O)C(F)(F)F)nc32)cc1OC1CCOC1 (stereo not given) | > 10 µM |
| N#Cc1cnc(NC(=O)N2CCCc3ccc(C(=O)C(F)(F)F)nc32)cc1OC1CCCCC1 | > 10 µM |
| CCCOc1cc(NC(=O)N2CCCc3ccc(C(=O)C(F)(F)F)nc32)ncc1C#N | > 10 µM |
| COc1cc(NC(=O)N2CCCc3ccc(C(=O)C(F)(F)F)nc32)ncc1C#N | > 10 µM |
| CC(C)Oc1cc(NC(=O)N2CCCc3ccc(C(=O)C(F)(F)F)nc32)ncc1C#N | > 10 µM |
| CCCCOc1cc(NC(=O)N2CCCc3ccc(C(=O)C(F)(F)F)nc32)ncc1C#N | > 10 µM |

molecular target: Fibroblast growth factor receptor 1 (Homo sapiens, UniProt P11362); experiment: Inhibition of FGFR1 (unknown origin) using Tyr04 peptide as substrate incubated for 1 hr in presence of ATP by FRET based Z'-LYTE assay; details: not given
Sequence (P11362 whole entry): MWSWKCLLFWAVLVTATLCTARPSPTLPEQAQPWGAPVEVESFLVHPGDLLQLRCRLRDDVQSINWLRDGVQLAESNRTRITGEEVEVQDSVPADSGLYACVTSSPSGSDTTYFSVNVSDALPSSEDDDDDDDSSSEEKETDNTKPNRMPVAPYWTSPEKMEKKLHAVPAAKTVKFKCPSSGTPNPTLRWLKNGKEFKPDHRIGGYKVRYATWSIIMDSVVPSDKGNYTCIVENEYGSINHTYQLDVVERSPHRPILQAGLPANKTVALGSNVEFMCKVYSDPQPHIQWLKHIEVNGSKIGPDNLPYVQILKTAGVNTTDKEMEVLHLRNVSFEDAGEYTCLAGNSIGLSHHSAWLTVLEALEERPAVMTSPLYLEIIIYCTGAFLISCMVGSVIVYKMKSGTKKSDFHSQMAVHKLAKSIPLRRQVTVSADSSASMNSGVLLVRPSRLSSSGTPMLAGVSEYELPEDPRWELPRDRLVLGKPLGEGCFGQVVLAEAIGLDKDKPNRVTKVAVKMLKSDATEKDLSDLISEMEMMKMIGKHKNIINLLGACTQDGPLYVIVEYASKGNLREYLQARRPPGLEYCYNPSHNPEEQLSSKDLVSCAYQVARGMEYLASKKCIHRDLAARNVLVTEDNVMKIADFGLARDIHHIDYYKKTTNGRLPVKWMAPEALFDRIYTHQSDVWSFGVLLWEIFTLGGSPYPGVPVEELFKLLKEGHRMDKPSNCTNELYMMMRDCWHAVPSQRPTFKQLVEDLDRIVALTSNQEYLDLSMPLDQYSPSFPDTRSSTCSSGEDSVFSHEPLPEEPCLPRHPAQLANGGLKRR

| SMILES | IC50 |
| --- | --- |
| COCCNc1cc(NC(=O)N2CCCc3ccc(C(=O)C(F)(F)F)nc32)ncc1C#N | > 10 µM |
| CC(C)Oc1cc(NC(=O)N2CCCc3ccc(C=O)nc32)ncc1C#N | > 10 µM |
| CCOc1cc(NC(=O)N2CCCc3ccc(C(=O)C(F)(F)F)nc32)ncc1C#N | > 10 µM |
| COCCOc1cc(NC(=O)N2CCCc3ccc(C(=O)C(F)(F)F)nc32)ncc1C#N | > 10 µM |
| N#Cc1cnc(NC(=O)N2CCCc3ccc(C(=O)C(F)(F)F)nc32)cc1OC1CCCC1 | > 10 µM |
| N#Cc1cnc(NC(=O)N2CCCc3ccc(C(=O)C(F)(F)F)nc32)cc1OC1CCOC1 (stereo not given) | > 10 µM |
| N#Cc1cnc(NC(=O)N2CCCc3ccc(C(=O)C(F)(F)F)nc32)cc1OC1CCCCC1 | > 10 µM |
| CCCOc1cc(NC(=O)N2CCCc3ccc(C(=O)C(F)(F)F)nc32)ncc1C#N | > 10 µM |
| COc1cc(NC(=O)N2CCCc3ccc(C(=O)C(F)(F)F)nc32)ncc1C#N | > 10 µM |
| CC(C)Oc1cc(NC(=O)N2CCCc3ccc(C(=O)C(F)(F)F)nc32)ncc1C#N | > 10 µM |
| CCCCOc1cc(NC(=O)N2CCCc3ccc(C(=O)C(F)(F)F)nc32)ncc1C#N | > 10 µM |

molecular target: T1, Tyrosine-protein kinase JAK3 (Homo sapiens, UniProt P52333); experiment: Inhibition of JAK3 (unknown origin) incubated for 1 hr in presence of ATP and substrate by FRET based Z'-LYTE assay; details: not given
T1 sequence (P52333 whole entry): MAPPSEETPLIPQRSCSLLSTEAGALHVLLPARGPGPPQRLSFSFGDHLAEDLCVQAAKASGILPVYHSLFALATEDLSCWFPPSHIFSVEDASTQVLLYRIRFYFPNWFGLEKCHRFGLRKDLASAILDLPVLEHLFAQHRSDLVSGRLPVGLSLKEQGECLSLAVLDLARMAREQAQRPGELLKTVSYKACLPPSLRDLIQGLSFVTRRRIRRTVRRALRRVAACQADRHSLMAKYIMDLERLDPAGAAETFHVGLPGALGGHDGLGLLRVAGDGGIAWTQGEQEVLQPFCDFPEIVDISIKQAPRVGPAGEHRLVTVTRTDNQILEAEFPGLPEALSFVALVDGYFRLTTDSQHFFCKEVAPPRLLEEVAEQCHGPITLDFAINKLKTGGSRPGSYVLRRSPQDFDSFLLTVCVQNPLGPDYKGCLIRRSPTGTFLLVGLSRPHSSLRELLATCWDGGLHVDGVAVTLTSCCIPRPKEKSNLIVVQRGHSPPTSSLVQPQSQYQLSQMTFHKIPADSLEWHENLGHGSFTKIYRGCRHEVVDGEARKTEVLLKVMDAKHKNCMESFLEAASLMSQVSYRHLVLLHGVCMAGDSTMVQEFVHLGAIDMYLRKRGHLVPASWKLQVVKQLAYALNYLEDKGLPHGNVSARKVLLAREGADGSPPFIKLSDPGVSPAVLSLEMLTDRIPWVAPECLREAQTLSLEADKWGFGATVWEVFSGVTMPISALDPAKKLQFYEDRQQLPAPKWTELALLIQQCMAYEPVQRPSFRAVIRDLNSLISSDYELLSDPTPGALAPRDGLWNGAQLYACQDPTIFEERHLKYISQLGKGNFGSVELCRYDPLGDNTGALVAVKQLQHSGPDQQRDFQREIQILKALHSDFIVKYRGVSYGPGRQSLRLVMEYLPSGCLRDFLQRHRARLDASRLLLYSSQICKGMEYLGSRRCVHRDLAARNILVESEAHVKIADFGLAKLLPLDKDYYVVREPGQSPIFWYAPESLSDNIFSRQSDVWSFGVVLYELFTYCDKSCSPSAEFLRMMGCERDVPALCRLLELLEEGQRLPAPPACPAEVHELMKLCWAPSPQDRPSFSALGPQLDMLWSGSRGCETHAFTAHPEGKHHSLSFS

| SMILES | IC50 |
| --- | --- |
| O=C(c1ccc(-c2nc3cnc4[nH]ccc4c3n2C2CCCCC2)o1)C(F)(F)F | 0.0872 µM |
